Patent publication US12163953B2, “P-phenylene ethynylene compounds as bioactive and detection agents” (STC.UNM, priority 2014, dated 2024)
Where a name gives a salt, the structure may show the parent alone. Read-outs that look alike come from different tables or passages of the source.

Legend:
[1] = system: B. atrophaeus vegetative cells; format: cell-based, Bacillus atrophaeus; settings: 10 μg/mL
B. atrophaeus spores = format: cell-based, Bacillus atrophaeus
[2] = system: B. anthracis Sterne vegetative cells; format: cell-based, Bacillus anthracis Sterne; settings: 10 μg/mL, light-activated PE
[3] = system: B. anthracis Sterne spores; format: cell-based, Bacillus anthracis Sterne; settings: within 90 minutes
[4] = Absorbance/fluorescence spectroscopy and fluorescence quantum yield (comparative method) of PEs and PE/substrate aggregates; format: physicochemical
[5] = Photophysical properties of PEs alone (excitation/emission spectra, fluorescence yield); format: physicochemical
Protocol: Excitation and emission spectra of PEs in phosphate buffer alone, with monomeric HEWL and with HEWL amyloids (8 h incubated) are shown in FIGS. 18A-H, and relevant photophysical properties are summarized in Table 1. FIGS. 18A-H illustrate excitation (A, B, C, D) and emission (right; E, F, G. H) spectra of PEs (A, E: PE1+; B, F: PE1−; C, G: PE2+; D, H: […]) alone (long dashed line) with HEWL monomers (short dashed line) and with HEWL amyloids (solid line); PE concentration: 500 nM, protein concentration: 5 μM monomer basis/0.25 mg/mL; emission and excitation wavelengths, respectively, were chosen as shown in Table 1 for each sample. A 10:1 molar ratio of protein to PE was used for these experiments. Absorbance spectra were taken, but background light scattering from insoluble amyloid aggregates made them difficult to interpret, so “fluorescence detected absorbance” in the form of excitation spectra was used instead. Normalized excitation and emission spectra, in which peak shifts and lineshape changes of spectra were somewhat easier to visualize, were used. […] PE1+ (FIG. 18E) had no change in wavelength or lineshape of emission spectrum, just a large increase in intensity when mixed with amyloids. The excitation spectra (FIGS. 18A, B, C, D) show a notable bathochromic shift for each PE in solution mixed with amyloid, of 23, 27, 35 and 29 nm for PE1+, PE2+, PE3+ and PE1−, respectively, observing only the low-energy band. The high-energy band, less relevant for imaging purposes, was also bathochromically shifted. […] PE1− had similar excitation spectrum (FIG. 18B) with monomer and amyloid, except for a large intensity difference.
(§1) For studies of fluorescence enhancement vs. protein incubation time, dyes were mixed with protein sample in phosphate buffer (10 mM, pH 7.4) at equal monomer concentration of 10 μM in the wells of a standard 96-well plate. Emission spectra were obtained using top read with a SpectraMax M2e plate-reading spectrophotometer (Molecular Devices, Sunnyvale, CA). Experiments were performed in duplicate and errors are reported as standard deviation. For analysis of bound PE excitation and emission spectra and protein-PE energy transfer, PEs (500 nM) were mixed with protein sample (5 μM, monomer basis) in phosphate buffer and the solution transferred to a quartz, fluorometry cuvette. Spectra were obtained on a PTI QuantaMaster 40 steady state spectrofluorometer (HORIBA Scientific, Edison, NJ).

HEWL amyloids = biological target: T1, HEWL amyloids (Gallus gallus, UniProt P00698); experiment: Excitation and emission spectra of PEs with HEWL amyloids; format: binding, hen; settings: PE 500 nM, HEWL amyloid 5 μM monomer basis
T1 construct: Lyophilized HEWL was dissolved at 10 mg/mL in 10 mM pH 3 sodium citrate buffer with 0.1 M NaCl; purchased Sigma-Aldrich; host or cells: hen egg white; fibrillised in house (pH 3, 70 °C, stirred)
Protocol: Excitation and emission spectra of PEs in phosphate buffer alone, with monomeric HEWL and with HEWL amyloids (8 h incubated) are shown in FIGS. 18A-H, and relevant photophysical properties are summarized in Table 1. FIGS. 18A-H illustrate excitation (A, B, C, D) and emission (right; E, F, G. H) spectra of PEs (A, E: PE1+; B, F: PE1−; C, G: PE2+; D, H: PE3+) in phosphate buffer (PB, pH 7.4, 10 mM) alone (long dashed line) with HEWL monomers (short dashed line) and with HEWL amyloids (solid line); PE concentration: 500 nM, protein concentration: 5 μM monomer basis/0.25 mg/mL; emission and excitation wavelengths, respectively, were chosen as shown in Table 1 for each sample. A 10:1 molar ratio of protein to PE was used for these experiments. Absorbance spectra were taken, but background light scattering from insoluble amyloid aggregates made them difficult to interpret, so “fluorescence detected absorbance” in the form of excitation spectra was used instead. Normalized excitation and emission spectra, in which peak shifts and lineshape changes of spectra were somewhat easier to visualize, were used. […] PE1+ (FIG. 18E) had no change in wavelength or lineshape of emission spectrum, just a large increase in intensity when mixed with amyloids. The excitation spectra (FIGS. 18A, B, C, D) show a notable bathochromic shift for each PE in solution mixed with amyloid, of 23, 27, 35 and 29 nm for PE1+, PE2+, PE3+ and PE1−, respectively, observing only the low-energy band. The high-energy band, less relevant for imaging purposes, was also bathochromically shifted. […] PE1− had similar excitation spectrum (FIG. 18B) with monomer and amyloid, except for a large intensity difference.
Lyophilized HEWL was dissolved at 10 mg/mL in 10 mM pH 3 sodium citrate buffer with 0.1 M NaCl. The solution was incubated in a 70C oil bath and magnetically stirred at 250 rpm for 12 h, and aliquots were withdrawn at half-hour intervals. […] Half of each aliquot was immediately diluted into pH 7.4 phosphate buffer to prevent further influence of acidic conditions and stored at 4C.
as §1

HEWL monomers = biological target: T2, HEWL monomers (Gallus gallus, UniProt P00698); experiment: Fluorescence interaction of PEs with HEWL monomers; format: binding, hen; settings: HEWL monomers 5 μM/0.25 mg/mL
T2 construct: Hen egg white lysozyme and Thioflavin T were obtained from Sigma-Aldrich Chemical Company; purchased Sigma-Aldrich; host or cells: hen egg white
Protocol: Excitation and emission spectra of PEs in phosphate buffer alone, with monomeric HEWL and with HEWL amyloids (8 h incubated) are shown in FIGS. 18A-H, and relevant photophysical properties are summarized in Table 1. FIGS. 18A-H illustrate excitation (A, B, C, D) and emission (right; E, F, G. H) spectra of PEs (A, E: PE1+; B, F: PE1−; C, G: PE2+; D, H: PE3+) in phosphate buffer (PB, pH 7.4, 10 mM) alone (long dashed line) with HEWL monomers (short dashed line) and with HEWL amyloids (solid line); PE concentration: 500 nM, protein concentration: 5 μM monomer basis/0.25 mg/mL; emission and excitation wavelengths, respectively, were chosen as shown in Table 1 for each sample. […] Absorbance spectra were taken, but background light scattering from insoluble amyloid aggregates made them difficult to interpret, so “fluorescence detected absorbance” in the form of excitation spectra was used instead. […]
[formula] where x is PE concentration (with protein concentration fixed), y is PE fluorescence intensity. […] Fits to the data for the three cationic PEs produced Fmax values close to the observed saturation value, and the other two parameters are reported as calculated. […]
For studies of fluorescence enhancement vs. protein incubation time, dyes were mixed with protein sample in phosphate buffer (10 mM, pH 7.4) at equal monomer concentration of 10 μM in the wells of a standard 96-well plate. […]

[6] = biological target: T3, HEWL fibrils incubated for different lengths of time (Gallus gallus, UniProt P00698); experiment: Fluorescence enhancement of dyes versus HEWL incubation time; format: binding, hen
T3 construct: Lyophilized HEWL was dissolved at 10 mg/mL in 10 mM pH 3 sodium citrate buffer with 0.1 M NaCl; purchased Sigma-Aldrich; host or cells: hen egg white; fibrillised in house (pH 3, 70 °C, stirred)
Protocol: Hen egg white lysozyme (HEWL) was used to form fibrillary amyloid aggregates for use in this study. […] For these experiments. HEWL (Sigma-Aldrich) was incubated at 70′C and a concentration of 350 μM in pH 3 sodium citrate buffer (10 mM) with 100 mM NaCl.
A plot of normalized fluorescence enhancement for all four PEs and Thioflavin T with HEWL fibrils incubated for different lengths of time is shown in FIG. 15. PE1+ and PE2+ track amyloid formation in roughly the same way as ThT, showing a sigmoidal curve with onset of a logarithmic growth phase occurring at the same time, around 1 hour of incubation. The plateau phase, as monitored by fluorescence of any of those three PEs or ThT, appeared at 2 hours incubation.
as §1

HEWL amyloid fibrils = biological target: T4, HEWL amyloid fibrils (Gallus gallus, UniProt P00698); experiment: Induced circular dichroism of PE-amyloid complexes; format: binding, hen; settings: PEs 10 μM, HEWL 10 μM monomer basis
T4 construct: Lyophilized HEWL was dissolved at 10 mg/mL in 10 mM pH 3 sodium citrate buffer with 0.1 M NaCl; purchased Sigma-Aldrich; host or cells: hen egg white; fibrillised in house (pH 3, 70 °C, stirred)
Protocol: Circular dichroism measurements were performed to determine if the intrinsic chirality of the HEWL fibrils was transferred to the PE chromophore by a chiral backbone twist or an “excitonic” chiral supramolecular aggregate. CD spectroscopy (CPEs in PB with HEWL monomer and with HEWL amyloid; performed for (a): PE1+; (b): PE1−; (c): PE2+; (d): PE3+; PEs 10 μM, HEWL 10 μM monomer basis/0.5 mg/mL) indicated induced circular dichroism of PEs when bound to HEWL amyloids. As expected, no PE had optical activity by itself in phosphate buffer solution and none of the PEs had any CD with HEWL monomer, including PE1−. […] PE2+ and PE3+ gave rise to similar CD spectra, with more intense bands in the spectrum for PE3+.
PEs and protein samples were diluted in phosphate buffer, gently vortexed, and read in a 1 mm pathlength quartz CD cuvette using an Aviv 410 CD spectrometer (Aviv Biomedical, Lakewood, NJ), 15 s averaging time. A blank spectrum (PB only) was subtracted from each sample to remove background activity. Error bars are standard deviation over multiple reads of a single sample as reported by the instrument.

[7] = Absorbance and fluorescence of −1C with AChE inhibitors without LaCh (aggregation control); format: physicochemical; settings: 5 uM −1C with 5 ug/mL inhibitor, no LaCh
Protocol: As shown in FIGS. 12A-C, it is clear that inhibition of AChE by several different inhibitors is apparent in the attenuated loss of fluorescence compared with the reference solution, with no inhibitor. […] FIGS. 13A-B illustrate (A) absorbance and (B) fluorescence (Ex: 370 nm) of 5 uM −1C with 5 ug/mL of either LaCh or one of the three AChE Inhibitors used in this study. […] Further, there is little overlap between the fluorescence of the TAE-1/IPE complex and that of the PE/LaCh complex.

[8] = phosphate buffer pH 7.4, 10 mM, PE 500 nM

T1 sequence (P00698 19-147): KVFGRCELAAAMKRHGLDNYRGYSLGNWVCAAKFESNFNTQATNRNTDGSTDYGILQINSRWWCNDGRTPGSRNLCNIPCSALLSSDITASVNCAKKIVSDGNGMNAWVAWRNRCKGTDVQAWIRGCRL
T3 sequence (P00698 19-147): as above
T2 sequence (P00698 19-147): as above
T4 sequence (P00698 19-147): as above

Compound: C[N+](C)(C)CCOc1ccc(C#CC2=CC=C(C#Cc3ccc(OCC[N+](C)(C)C)cc3)C2)cc1.I [EO-PE (Th,C2)]
- cell death ([1]; 1 hour, light-activated (UVA)): 99%
- uptake of PI relative to untreated cells ([1]; 1 hr, dark): increased tenfold
- cells killed ([1]; 1 hr, in the absence of light): 73%
- effect of increasing PE concentration on death or germination of spores (B. atrophaeus spores): no increased effect
- spores in which the water influx event progressed to stain uptake matching vegetative cells (germination) (B. atrophaeus spores): 39%
- spores still fluorescing like untreated spores (S gate) (B. atrophaeus spores): 61%
- spores that successfully germinate (B. atrophaeus spores): 15%
- log reduction of vegetative cells ([2]; within 30 minutes): ~4 log
- log reduction of vegetative cells ([2]; within 90 minutes): 5 log
- killing of spores ([3]; 20 ng PE/spore, light-activated PE): 99%
- spores induced to germinate ([3]; absence of UVA light): 81%
- spores not killed that germinate into viable colony-forming vegetative cells (of all spores) ([3]; absence of UVA light): 72%

Compound: CCOC(=O)c1ccc(C#Cc2cc(OCCS(=O)(=O)O)c(C#Cc3ccc(C(=O)OCC)cc3)cc2OCCS(=O)(=O)O)cc1 [PE1−]
- enhancement of fluorescence quantum yield, LaCh complex versus PE alone ([4]; 5 uM PE with 32 uM LaCh): 66 times
- fluorescence quantum yield of aggregate with LaCh ([4]; 5 uM PE with 32 uM LaCh): 0.991
- centre of structured emission upon aggregation with substrate ([4]; +2C with DLPG, −1C with LaCh): 442 nm
- fluorescence quantum yield, PE alone ([4]; in water, corrected value of this study): 0.015
- λem (H2O) ([5]; H2O): 454 nm
- λem (PB) ([5]; phosphate buffer): 454 nm
- λex (PB), high-energy band [5, 8]: 314 nm
- λex (PB), low-energy band [5, 8]: 370 nm
- bathochromic shift of excitation spectrum, low-energy band, with amyloid (HEWL amyloids): 29 nm
- λem (PB w/ HEWL) (HEWL amyloids; PB): 439 nm
- λex (PB w/HEWL), high-energy band (HEWL amyloids; PB): 327 nm
- λex (PB w/HEWL), low-energy band (HEWL amyloids; PB): 399 nm
- binding to HEWL monomers (HEWL monomers): linear and non-saturable
- fluorescence enhancement with monomeric species versus amyloid ([6]; equimolar concentrations, 10 μM): greater fluorescence enhancement when mixed with monomeric species than with amyloid
- induced circular dichroism with HEWL amyloid (HEWL amyloid fibrils): strong induced CD with a negative Cotton effect

Compound: Cc1ccc2c(c1)sc(-c1ccc(N(C)C)cc1)[n+]2C.[Cl-] [ThT, Thioflavin T, reference compound]
- HEWL incubation time at which the plateau phase of fluorescence enhancement appears ([6]; dye 10 μM, HEWL 10 μM monomer basis): 2 h

Compound: COc1ccc(C(=O)NCc2ccc(OCCN(C)C)cc2)cc1OC [Itopride, N-[[4-[2-(Dimethylamino)ethoxy]phenyl]methyl]-3,4-dimethoxy benzamidehydrochloride]
- aggregation induced with −1C [7]: no significant aggregation

Compound: CCC1(c2cccc(O)c2)CCCCN(C)C1.Cl (stereo not shown) [Meptazinol, 3-(3-ethylhexahydro-1-methyl-1H-azepin-3-yl)-phenol hydrochloride]
- aggregation induced with −1C [7]: no significant aggregation

Compound: C[N+](C)(C)CCOC(=O)c1ccc(Oc2nc(Oc3ccc(C(=O)OCC[N+](C)(C)C)cc3)nc(Oc3ccc(C(=O)OCC[N+](C)(C)C)cc3)n2)cc1.[I-].[I-].[I-] [TAE-1]
- aggregation induced with −1C [7]: red-shifted absorbance and a strongly red-shifted and broadened green fluorescence
